# Like-named read-outs stand apart in the source and are kept apart here.
# How the values were obtained:
# aldh5a1−/− mouse brain [1] = assay: Brain gene expression (GABA(A) receptor subunits, AMPK/mTOR pathway) under Torin drugs; format: in vivo
# aldh5a1−/− mice = conditions: cited from earlier work
# aldh5a1−/− mouse brain [2] = conditions: in vivo; cited from earlier work
# [3] = tested on: aldh5a1+/+ and aldh5a1−/− mice; assay: Electrocorticography: seizures under Torin 2; format: in vivo; conditions: 10 mg/kg, mean ± SEM
# Experimental: FIG. 7—Representative electrocorticographic recordings of seizure types in an aldh5a1−/− mouse.
# Studies with Torin 2 administration in aldh5a1−/− mice, beginning at DOL10 under an escalating dose paradigm, were evaluated for seizures using a three channel recording electrocorticography (Pinnacle Technology; https://www.pinnaclet.com/eeg-emg-systerns.html) and electrode-implanted aldh5a1+/+ and aldh5a1−/− mice. EEG was scored offline using semi-automated detection (Neuroscore, Data Sciences International, St. Paul, Minn.) for seizure frequency (total number of seizures), and total ictal time (cumulative time spent in seizures); where a seizure event was defined as a run of continuous spikes ≥3s in duration on the EEG. Automatically detected events were verified by visual inspection (Dhamne et al. Mol Autism 8:26 (2017)). Our prediction was that Torin 2 administration would lead to improvement in both parameters. […] If these receptors remain immature, consistent with our hypothesis for bumetanide (see above), then their subsequent up-regulation could conceivably exacerbate depolarization, and thus enhance cumulative epileptic outburst duration, as Applicants observed (Table 2). […]
# GABA-transaminase = target: T1, GABA-transaminase (Mus musculus, UniProt P61922); conditions: daily doses ˜10 mg/kg or osmotic minipumps; cited from earlier work
# T1 construct: from tissue; host or cells: living mice (CNS), endogenous enzyme
# T1 sequence (P61922 29-500): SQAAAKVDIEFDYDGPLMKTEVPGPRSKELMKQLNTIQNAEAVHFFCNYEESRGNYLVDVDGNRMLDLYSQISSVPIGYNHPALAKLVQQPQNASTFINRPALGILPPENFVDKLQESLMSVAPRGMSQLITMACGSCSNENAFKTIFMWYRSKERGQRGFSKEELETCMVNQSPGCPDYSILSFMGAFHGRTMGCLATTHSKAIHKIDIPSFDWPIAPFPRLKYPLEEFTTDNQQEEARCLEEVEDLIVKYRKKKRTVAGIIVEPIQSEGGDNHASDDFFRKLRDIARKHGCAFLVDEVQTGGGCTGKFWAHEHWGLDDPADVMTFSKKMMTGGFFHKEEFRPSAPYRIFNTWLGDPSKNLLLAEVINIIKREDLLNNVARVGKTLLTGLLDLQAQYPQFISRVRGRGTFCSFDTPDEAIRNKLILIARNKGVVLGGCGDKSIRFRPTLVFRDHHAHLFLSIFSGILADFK
compound,measurement,setting,value
Nc1ccc(-c2ccc3ncc4ccc(=O)n(-c5cccc(C(F)(F)F)c5)c4c3c2)cn1 [Torin 2],expression of Stk11 (AMPK's activator),aldh5a1−/− mouse brain [1]; aldh5a1−/− mice,normalized
same,lower expression of Tsc1 and 2,aldh5a1−/− mouse brain [1]; aldh5a1−/− mouse brain,normalized
same,rescue from premature lethality / lifespan extension,aldh5a1−/− mice,rescue
same,rescue from premature lethality / lifespan extension,aldh5a1−/− mice; listed as Torin2,striking
same,rescue from premature lethality / lifespan extension,aldh5a1−/− mice; listed as torin 2,significantly prolong the lifespan
same,expression of GABA(A)ergic receptor subunits,aldh5a1−/− mouse brain [2],corrected (upregulated)
same,Seizure Frequency,[3],0.50 ± 0.59 avg/hr
same,Total Ictal Time,[3],2.1 ± 1.2 seconds (avg/hr)
C=CC(N)CCC(=O)O (stereo not shown) [vigabatrin],rescue from premature lethality / lifespan extension,aldh5a1−/− mice,rescue
same,GABA in the CNS,GABA-transaminase,significantly elevated

# — patent publication US20220331448A1, “COMPOSITIONS AND METHODS FOR TREATING SUCCINIC SEMIALDEHYDE DEHYDROGENASE DEFICIENCY (SSADHD)” (Washington State University, priority 2018, published 2022)
